Measurements reported in publication PMC4237671 (Anesthesiology, 2014).
“Also recorded” adds a separate entry of the source. Like-named read-outs stand apart in the source and are kept apart here.

Assays:
[1] = Pharmacokinetics after single IV bolus; details: for Co: back-extrapolated; for Plasma concentration range during anesthetic recovery: after IV bolus, approximate
[2] = Pharmacokinetics after single bolus followed by 2-h infusion
[3] = test system: dogs; experiment: Loss of righting reflexes; assay type: in vivo, beagle dog
[4] = test system: dogs; assay type: in vivo, beagle dog
[5] = test system: dogs; experiment: Pharmacodynamic modeling: plasma concentration vs anesthesia score; assay type: in vivo, beagle dog; details: bolus, n = 3 dogs; for γ (slope parameter): sigmoid Emax fit; for EC anesthesia score 3: venous plasma concentration when anesthesia score is 3
[6] = test system: dogs; experiment: Observation of myoclonus during and after hypnotic infusion; details: for Persistence of myoclonus in the postinfusion period: after 2-h infusions; for Incidence of myoclonus during infusion: for all studies
[7] = test system: adrenocortical responsiveness to ACTH1-24 stimulation; experiment: Adrenocortical recovery after hypnotic infusion; details: for Plasma cortisol concentrations compared to vehicle group over time: after 2-h infusion, ACTH1-24 stimulated; for Shared Hill coefficient of in vivo adrenocortical concentration-response curves: both data sets fit to a single Hill coefficient
[8] = test system: dogs; experiment: Pilot experiments of midazolam dosing in dogs; assay type: in vivo, beagle dog; details: 0.1 - 0.2 mg/kg intravenous bolus per dose
[9] = Stability testing of frozen formulated drug; assay type: physicochemical; details: 8 mg/ml in 20% sulfobutylether-β-cyclodextrin pH 7.4, stored frozen at -20°C
[10] = test system: rats; details: cited from earlier work
[11] = test system: rats; details: cited from earlier work; remark: listed apart in the source
[12] = metabolite after IV bolus of parent, n = 3 dogs
[13] = metabolite, bolus followed by 2-h infusion of parent, n = 4 dogs
[14] = CPMM vs etomidate 2-h infusion study, n = 4 dogs per group
[15] = IV bolus (CPMM 4 mg/kg, etomidate 2 mg/kg), n = 3 dogs
[16] = parent drug, IV bolus, n = 3 dogs, time zero to infinity
[17] = CPMM vs propofol 2-h infusion study, n = 4 dogs/group
[18] = parent drug, IV bolus, n = 3 dogs
[19] = bolus followed by 2-h infusion, dogs

CC(c1ccccc1)n1cncc1C(=O)O (centres unmarked) [Etomidate Metabolite]
Plasma concentration in final blood samples 120 min after administration ([1]; after etomidate 2 mg/kg bolus, dogs): 708 ± 75 ng/mL
AUC [1, 12]: 236,000 ± 18,400 min·ng ml^−1
Cmax [1, 12]: 2,370 ± 347 ng·ml^−1
t1/2 [1, 12]: 61.4 ± 9.13 min
tmax [1, 12]: 18.3 ± 18.9 min
Cmax [2, 13]: 1,680 ±253 ng/ml
t1/2 [2, 13]: 69.3 ± 23.4 min

CCOC(=O)c1cncn1[C@H](C)c1ccccc1 [Etomidate, reference compound]
Duration of LoRR ([3]; 0.5 mg/kg IV bolus, n = 3 dogs): 2.7 ± 0.8 min
Duration of LoRR ([3]; 1.9 mg/kg IV bolus, n = 3 dogs): 17 ± 5 min
Relative hypnotic potency CPMM vs etomidate ([3]; dogs): approximately twice as potent as CPMM
Bolus doses that induced LoRR in all dogs ([3]; dogs, IV bolus): 0.5 to 1.9 mg/kg
Slope of duration of LoRR vs logarithm of dose ([3]; dogs, IV bolus): 24
X-intercept of duration of LoRR vs logarithm of dose ([3]; dogs, IV bolus): 0.37 mg/kg
Time after bolus administration of anesthetic recovery ([4]; CPMM 4 mg/kg or etomidate 2 mg/kg bolus, see fig. 3B): 9.0 to 13.8 min
γ (slope parameter) [5]: 1.7 0.9 – 2.4
EC anesthesia score 1 ([5]; venous plasma concentration when anesthesia score is 1): 1,607 1,026 – 2,517 ng/ml
EC anesthesia score 3 [5]: 5,952 4,392 – 8,066 ng/ml
Dogs with myoclonus during infusion [6, 14]: 2 dogs
Persistence of myoclonus in the postinfusion period ([6]; dogs): up to approximately an hour
Incidence of myoclonus during infusion [6]: 2/4
Co [1, 15]: 10,700 ± 1,440 ng/ml
Decrease of plasma concentration from initial to final blood sample (2 h) ([1]; IV bolus, dogs): 1.5 orders of magnitude
Plasma concentration at 10 min as percentage of initial blood sample ([1]; IV bolus, dogs): 25%
Plasma concentration range during anesthetic recovery ([1]; dogs): approximately 1,000 ng/ml
concentration at 30 s ([1]; beagle, dog, in vivo, 2 mg/kg): 9080 ng/mL
concentration at 10 min ([1]; beagle, dog, in vivo, 2 mg/kg): 2230 ng/mL
AUC ([1]; beagle, dog, in vivo, iv, 2 mg/kg, AUC, parent drug, IV bolus, n = 3 dogs, time zero to infinity): 1930 ng·h/mL
AUC [1, 16]: 139,000 ± 26,300 min-ng ml^−1
Cmax ([2]; beagle, dog, in vivo): 2050 ng/mL
Plasma cortisol concentrations compared to vehicle group over time ([7]; dogs): remained significantly lower than those in the vehicle group throughout the duration of the study (>300 min)
Shared Hill coefficient of in vivo adrenocortical concentration-response curves [7]: -2.0

Cc1ncc2n1-c1ccc(Cl)cc1C(c1ccccc1F)=NC2 [midazolam]
Sedative effect [8]: no discernable sedative effect
Effect on myoclonus ([6]; 0.1 - 0.2 mg/kg intravenous bolus per dose during 2-h hypnotic infusions, dogs): effectively reduced the myoclonus

CC(C)c1cccc(C(C)C)c1O [propofol]
Dogs with myoclonus during infusion [6, 17]: two dogs had myoclonus

cyclopropyl-methoxycarbonyl metomidate [CPMM]
Duration of LoRR ([3]; 1 mg/kg IV bolus, n = 3 dogs): 1.8 ± 0.6 min
Duration of LoRR ([3]; 12 mg/kg IV bolus, n = 4 dogs): 10.9 ± 0.7 min
Relative hypnotic potency CPMM vs etomidate ([3]; dogs): half as potent; also recorded: approximately half that of etomidate
Bolus doses that induced LoRR in all dogs ([3]; dogs, IV bolus): ≥ 1 mg/kg
Slope of duration of LoRR vs logarithm of dose ([3]; dogs, IV bolus): 9.9
X-intercept of duration of LoRR vs logarithm of dose ([3]; dogs, IV bolus): 0.88 mg/kg
LoRR at lower doses ([3]; dogs, IV bolus 0.25 mg/kg or 0.5 mg/kg): failed to induce LoRR in any dog
Time to induction of LoRR ([3]; dogs, IV bolus at doses ≥1 mg/kg): < 15 s
ED50 for loss of righting reflexes ([3]; dogs, IV bolus, approximate value from Hill fit): ~ 0.8 mg/kg
Time to recover from anesthesia score 3 to score 0 ([4]; bolus followed by 2-h infusion): 8 ± 3 min
Time to recover from anesthesia score 3 to score 2 ([4]; bolus followed by 2-h infusion): 4.4 ± 1.3 min
Dependence of hypnotic recovery times on infusion duration ([4]; bolus vs bolus plus 2-h infusion): independent of infusion duration
Recovery times from anesthesia score 3 to all lower scores compared to etomidate ([4]; single bolus CPMM 4 mg/kg vs etomidate 2 mg/kg): significantly shorter
Time to recover from anesthesia score 3 to score 0 ([4]; single bolus only (4 mg/kg)): 11 ± 3 min
Time to recover from anesthesia score 3 to score 1 ([4]; single bolus only (4 mg/kg)): 5.5 ± 0.7 min
Time to recover from anesthesia score 3 to score 2 ([4]; single bolus only (4 mg/kg)): 4.3 ± 1.2 min
γ (slope parameter) [5]: 1.3 0.7 – 1.9
EC anesthesia score 3 [5]: 2,798 1,840 – 4,256 ng/ml
Stability of formulated drug [9]: no significant degradation over time
Hypnotic ED50 [10]: ~0.69 mg/kg
Slope of duration of hypnosis vs logarithm of dose [10]: 6.9
Hypnotic recovery time following 2-h continuous infusion [11]: 4.2 min
Dogs with myoclonus during infusion [6, 14]: 4 dogs
Dogs with myoclonus during infusion [6, 17]: all four dogs had myoclonus
Persistence of myoclonus in the postinfusion period ([6]; dogs): ceased within several minutes
Incidence of myoclonus during infusion [6]: 8/8
Plasma concentration in initial blood sample ([1]; 30 s after IV bolus (CPMM 4 mg/kg, etomidate 2 mg/kg), n = 3 dogs): 4,130 ± 640 ng/ml
Plasma concentration 10 min after administration [1, 15]: 330 ± 41 ng/mL
Co [1, 15]: 5,180 ± 1,120 ng/ml
Decrease of plasma concentration from initial to final blood sample (2 h) ([1]; IV bolus, dogs): decreased by four orders of magnitude
Plasma concentration at 10 min as percentage of initial blood sample ([1]; IV bolus, dogs): 8%
Plasma concentration range during anesthetic recovery ([1]; dogs): approximately 500 ng/ml
Normalized plasma concentration as percentage of that of etomidate ([1]; one hour after hypnotic bolus, dogs): 7%
CL [1, 18]: 211 ± 26 mL/min/kg
Vss [1, 18]: 1,880 ± 569 ml·kg^−1
t1/2 ([1]; parent drug, IV bolus, n = 3 dogs, apparent terminal half-life): 16.1 ± 2.99 min
AUC [1, 16]: 19,200 ± 2,590 min-ng ml^−1
Clearance relative to etomidate (fold higher) ([1]; single bolus, dogs): 14 X
Terminal elimination half-life relative to etomidate ([1]; single bolus, dogs): 27%
Vss relative to total body water volume in dogs (600 ml/kg) ([1]; single bolus, dogs): 3 X
Normalized plasma concentration as percentage of that of etomidate ([1]; ten minutes after hypnotic bolus, dogs): 33%
Decrease of plasma concentration from 30 to 60 min after the infusion ended [2, 19]: 22%
Half-life of decline beyond 30 min after infusion [2, 19]: ~ 90 min
Adrenal response to the second ACTH challenge compared to vehicle control ([7]; 180 min postinfusion, n = 4 dogs/group): normal adrenal response
Plasma cortisol concentrations compared to vehicle group over time ([7]; dogs): not significantly different from controls for all time points longer than 120 min after infusion termination
Half-time of adrenocortical recovery (normalized plasma cortisol) ([7]; after bolus plus 2-h infusion, n = 4 dogs): 215 min
Shared Hill coefficient of in vivo adrenocortical concentration-response curves [7]: -2.0
ACTH-stimulated plasma cortisol concentration, fold higher vs etomidate group ([7]; equivalent postinfusion time points after 2-h infusion, dogs): 4- to 27 fold
In vivo IC50 for suppression of adrenocortical responsiveness to ACTH1-24 ([7]; plasma hypnotic concentration, dogs, Hill fit, estimated): 0.027 µg/mL
